Measurements published in patent US20230136569A1, “USE OF NMN TO REDUCE IMMUNODEPRESSION AND IMMUNOSENESCENCE” (NUVAMID SA, priority 2020, published 2023).

Assays:
Type in all cases: in vivo
[1] = Weight gain and water consumption of mice given the compounds in drinking water; settings: old mice (15 months), 500 mg/kg p.o. in drinking water; compared with non-treated mice of 15 months (FIG. 1A)
Description: The administering of β-NMN at 500 mg/kg, of α-NMN at 500 mg/kg and of the vehicle (water) was obtained via oral route (p.o) in the drinking water to young and old mice. The solutions were prepared by dissolving the powder of β-NMN or α-NMN in the vehicle (water). The solution was used at ambient temperature for no more than 2 days and was freshly prepared for each new administration. The mice were weighed each week to adapt the dose of the compound to be administered. Throughout the entire phase, a standard food diet and tap water were provided ad libitum. The study comprised 4 groups each having 6 mice: • Group 1: young mice (aged 10 weeks)+drinking water (vehicle) • Groupe 2: old mice (aged 15 months)+drinking water (vehicle) • Group 3: old mice (aged 15 months)+compound I-B (alpha-NMN) in the drinking water • Group 4: old mice (aged 15 months)+compound I-A (beta-NMN) in the drinking water The water consumption of the mice was assessed per cage every other day. The mice were weighed every week. The mice in Group 3 were sacrificed after 4 weeks for organ collection and characterisation of T cell function. The mice in Group 4 were sacrificed after 6 weeks for organ collection and characterisation of T cell function. On the day of sacrifice, the mice were anaesthetised with Vetoflurane (isoflurane) and blood samples were taken from the retroorbital sinus. […]

[2] = tested on: CD4+ T cells producing IFNγ or IL10; test: Cytokine production by splenocytes stimulated with anti-CD3/CD28 beads for 18 h; settings: splenocytes of treated old mice, anti-CD3/CD28 beads 18 h (FIG. 10A)
Description: The total splenocytes were stimulated with beads coated with anti-CD3/CD28 for 18 h. As shown in FIGS. 10A and 10B, ageing reduced the proportion of cells producing IFNγ and IL10 when simulated with beads coated with anti-CD3/CD28.

[3] = tested on: B cells present in the spleen; test: Flow cytometry of B cells in the spleen of old mice; settings: 500 mg/kg p.o., 6 weeks
Description: (§1) The administering of β-NMN at 500 mg/kg, of α-NMN at 500 mg/kg and of the vehicle (water) was obtained via oral route (p.o) in the drinking water to young and old mice. The solutions were prepared by dissolving the powder of β-NMN or α-NMN in the vehicle (water). The study comprised 4 groups each having 6 mice: • Group 1: young mice (aged 10 weeks)+drinking water (vehicle) • Groupe 2: old mice (aged 15 months)+drinking water (vehicle) • Group 3: old mice (aged 15 months)+compound I-B (alpha-NMN) in the drinking water • Group 4: old mice (aged 15 months)+compound I-A (beta-NMN) in the drinking water The water consumption of the mice was assessed per cage every other day. The mice were weighed every week. The mice in Group 3 were sacrificed after 4 weeks for organ collection and characterisation of T cell function. The mice in Group 4 were sacrificed after 6 weeks for organ collection and characterisation of T cell function. On the day of sacrifice, the mice were anaesthetised with Vetoflurane (isoflurane) and blood samples were taken from the retroorbital sinus. The blood was incubated for 30 minutes at ambient temperature and then centrifuged at 1300 g for 10 minutes. After sacrificing of the mice, the spleen, thymus, and bone marrow of each animal were removed. The thymus was weighed and measured to evaluate involution thereof. For illustration purposes, photos of the thymus were taken on 5 animals per group. The thymus was divided into two parts: one part was treated with formol for histological examination. The second part was treated for characterisation of the immune cells. For characterisation of the cells, the thymus and spleen were crushed through a sieve of […] over a 50 mL tube with a syringe plunger. The bone marrow was rinsed with RPMI culture medium using a needle and syringe. The cell suspension was then centrifuged at 400 g for 5 minutes at 4° C. Lysis of the red blood cells was also performed before the cell count and use thereof for cytometry. The isolated cells of the spleen, thymus and bone marrow were marked with antibodies in accordance with the following tables to identify the proportion of effector and memory naive T and B cells. The following B cells of the spleen were also examined for characterisation as a function of the combination of proteins on the surface thereof: [table] Measured parameters: The results of flow cytometry are expressed in number or as a proportion of cells per organ. The weight of the thymus is expressed in grams.

[4] = tested on: T cells present in the spleen; test: Flow cytometry of CD4+ and CD8+ T cells in the spleen of old mice; settings: 500 mg/kg p.o.; for number of CD4+ effector T cells: α-NMN 4 weeks, β-NMN 6 weeks, compared with Group 3 (so in the source)
Description: as §1, with “following T” for “following B”

NC(=O)c1ccc[n+]([C@@H]2O[C@H](COP(=O)([O-])O)[C@@H](O)[C@H]2O)c1 (stereo in doubt) [I-A, nicotinamide mononucleotide]
weight gain of the treated mice [1]: did not significantly increase the weight | response to stimulation: proportion of cells producing IFNγ [2]: lack of response | number of activated B cells in the spleen ([3]; compared with the other groups (FIG. 6B)): increase in the number of activated B cells | number of memory B cells in the spleen ([3]; compared with the other groups (FIG. 6C)): increase | number of germinal B cells in the spleen ([3]; compared with the other groups (FIG. 6D)): increase | number of B cells in the spleen ([3]; compared with the other groups of mice (FIG. 6A)): significantly increased | number of CD4+ memory T cells in the spleen ([4]; 6 weeks, compared with the other groups (FIG. 7B)): increase in the memory T cells that is significant | total number of CD4+ T cells in the spleen ([4]; 6 weeks, compared with the other groups of mice (FIG. 7A)): significantly increased | number of CD4+ effector T cells [4]: increase in the number of CD4+ effector T cells

NC(=O)c1ccc[n+]([C@H]2O[C@H](COP(=O)([O-])O)[C@@H](O)[C@H]2O)c1 (stereo in doubt) [I-B, alpha nicotinamide mononucleotide]
weight gain of the treated mice [1]: did not significantly increase the weight | response to stimulation: proportion of cells producing IFNγ [2]: the response to stimulation was lower | number of naive CD8+ T cells in the spleen ([4]; 4 weeks (FIG. 8A)): does not modify the number of naive CD8+ T cells | levels of effector CD8+ T cells in the spleen ([4]; 4 weeks (FIG. 8B)): restoring of the levels of effector CD8+ T cells | levels of memory CD8+ T cells in the spleen ([4]; 4 weeks (FIG. 8C as printed)): restoring of the levels | levels of effector memory CD8+ T cells in the spleen ([4]; 4 weeks (FIG. 8D as printed)): restoring of the levels | number of CD4+ effector T cells [4]: increase in the number of CD4+ effector T cells
